# Assays:
# ErbB2 [1] = experiment: Phosphorylation of ErbB2 (immunoprecipitation / immunoblotting); format: cell-based; details: for phosphorylation of the P-loop of ErbB2: immunoblotting of total lysates, single agent
# Experimental: (§1) Biochemical studies were performed to study the molecular mechanism by which b4 signaling promotes mammary tumorigenesis.
# Since SFKs can phosphorylate Y845 in the P-loop of the EGF-R, we examined the effect of SFK inhibition on phosphorylation of the corresponding tyrosine in the P-loop of ErbB2.
# SFKs = experiment: Activation of SFKs; format: cell-based
# Experimental: as §1
# b4 = experiment: Tyrosine phosphorylation of b4; format: cell-based
# Experimental: as §1
# [2] = test system: mammary tumors of MMTV-Neu (YD) mice; experiment: Treatment of tumor-bearing MMTV-Neu(YD) mice, tumor volume by caliper; format: in vivo; details: for effect on tumor volume: Iressa 100 mg/Kg/day, day 24; for treated tumors that regress: Iressa 100 mg/Kg/day gastric gavage 24 days
# ERK and Akt [3] = experiment: Activation of ERK and Akt in Neu-b4 cells in vitro; format: cell-based, mouse; details: Neu-b4-1355T versus Neu-b4-WT cells
# activated ErbB2 = experiment: Inhibition of activated ErbB2 (IC50); format: cell-based; details: Neu-b4-WT versus Neu-b4-1355T cells in vitro
# ERK and Akt [4] = experiment: Activation of ERK and Akt in tumor lysates of treated mice; format: in vivo; details: Neu(YD)/b4-1355T versus Neu(YD)/b4-WT tumors
# c-Jun and STAT3 = experiment: Activation of c-Jun and STAT3 in tumor lysates of treated mice; format: in vivo; details: both types of tumors
# ErbB2 [5] = experiment: Activation of ErbB2 in tumors of treated mice; details: Neu(YD)/b4-WT and Neu(YD)/b4-1355T tumors
# Neu-b4-WT cells [6] = experiment: Matrigel invasion assay in response to FBS; details: Iressa 10 μM
# STAT3 = experiment: Phosphorylation of STAT3 in Neu-b4-WT cells; format: cell-based, mouse
# Text: Prior studies have linked SFK-mediated phosphorylation of the P-loop of ErbB receptors to JAK-STAT signaling. Since deletion of the b4 signaling domain reduces SFK activation and association with ErbB2 and decreases phosphorylation of the P-loop of ErbB-2, we examined the effect of this deletion on STAT3 activation. Phosphorylation at Y705 is essential for dimerization and activation of STAT3. […] […]. STAT3 S727, which is targeted by ERK, was phosphorylated at similar levels in both types of cells.
# [7] = test system: tumor cells expressing wild-type b4; experiment: Assembly of adherens and tight junctions in primary ErbB2-transformed tumor cells; format: cell-based, mouse
# Text: Tight junctions have emerged as key regulators of mammalian epithelial polarity and adhesion. Prompted by the observation that deletion of the b4 signaling domain increases the organization of tight junctions in mammary tumors, we used an ex vivo approach to examine the effect of b4 signaling on epithelial adhesion and polarity.
# [8] = test system: mammary tumors of MMTV-Neu (YD) mice; experiment: Anti-Ki-67 staining of tumor sections from treated MMTV-Neu(YD) mice; format: in vivo
# Experimental: Tumor sections were stained by IHC with anti-Ki-67 followed by counterstaining with hematoxylin. Bar=[…].
# Tumor sections were stained with anti-Ki-67 Mab, which labels proliferating cells.
# Neu-b4-WT cells [9] = experiment: Assembly of adherens and tight junctions in isogenic Neu-b4-WT cells; details: Neu-b4-WT cells in culture
# Text: To examine if the b4 integrin disrupts epithelial adhesion by a direct signaling mechanism, we generated isogenic Neu-transformed mammary tumor cells expressing either wildtype or mutant b4 by using an RNAi-reconstitution strategy.
# [10] = test system: mammary tumors of Neu(YD) mice; experiment: Tumor apoptosis in treated mice; format: in vivo
# c-Jun = experiment: Phosphorylation of c-Jun in Neu-b4-WT cells; format: cell-based, mouse
# Chain of activated ErbB2 (P04626 23-1255): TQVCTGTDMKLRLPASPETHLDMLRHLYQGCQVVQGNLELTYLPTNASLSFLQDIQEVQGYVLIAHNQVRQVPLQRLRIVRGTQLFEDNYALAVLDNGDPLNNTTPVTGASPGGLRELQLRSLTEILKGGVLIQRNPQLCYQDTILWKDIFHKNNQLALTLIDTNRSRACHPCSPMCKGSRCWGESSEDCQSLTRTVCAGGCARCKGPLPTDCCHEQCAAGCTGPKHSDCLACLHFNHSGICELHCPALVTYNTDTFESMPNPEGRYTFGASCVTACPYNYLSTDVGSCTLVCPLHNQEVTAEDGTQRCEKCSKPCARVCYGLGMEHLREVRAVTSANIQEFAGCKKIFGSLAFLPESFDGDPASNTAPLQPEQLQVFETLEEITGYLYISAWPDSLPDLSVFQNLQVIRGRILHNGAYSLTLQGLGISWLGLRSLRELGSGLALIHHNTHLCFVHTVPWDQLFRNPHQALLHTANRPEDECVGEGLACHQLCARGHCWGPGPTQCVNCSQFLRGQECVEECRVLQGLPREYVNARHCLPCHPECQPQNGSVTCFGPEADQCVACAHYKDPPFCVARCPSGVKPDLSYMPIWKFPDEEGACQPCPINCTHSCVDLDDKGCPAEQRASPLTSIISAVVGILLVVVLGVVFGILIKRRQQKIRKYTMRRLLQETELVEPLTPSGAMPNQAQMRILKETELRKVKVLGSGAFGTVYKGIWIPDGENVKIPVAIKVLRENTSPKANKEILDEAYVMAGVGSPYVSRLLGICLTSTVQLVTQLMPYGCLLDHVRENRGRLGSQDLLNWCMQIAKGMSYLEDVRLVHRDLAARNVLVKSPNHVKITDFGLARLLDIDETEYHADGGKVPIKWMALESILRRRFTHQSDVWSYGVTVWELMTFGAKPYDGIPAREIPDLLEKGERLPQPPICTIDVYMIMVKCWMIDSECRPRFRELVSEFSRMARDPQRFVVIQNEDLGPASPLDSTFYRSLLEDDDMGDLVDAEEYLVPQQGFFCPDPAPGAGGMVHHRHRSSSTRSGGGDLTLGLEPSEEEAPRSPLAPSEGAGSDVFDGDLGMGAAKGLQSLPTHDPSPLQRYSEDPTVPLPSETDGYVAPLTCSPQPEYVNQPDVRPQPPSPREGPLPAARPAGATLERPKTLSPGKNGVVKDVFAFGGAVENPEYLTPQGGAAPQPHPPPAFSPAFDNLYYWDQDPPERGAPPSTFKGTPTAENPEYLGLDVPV
structure (smiles),measurement,setting,value
CC(C)(C)n1nc(-c2ccc(Cl)cc2)c2c(N)ncnc21 [PP2],phosphorylation of ErbB2 at its major autophosphorylation site,ErbB2 [1],exerted the opposite effects
same,tyrosine phosphorylation of ErbB2,ErbB2 [1],only partially inhibited
same,phosphorylation of the P-loop of ErbB2,ErbB2 [1],inhibit phosphorylation of the P-loop of ErbB2 to a significant extent
same,activation of SFKs,SFKs,exerted the opposite effects
same,tyrosine phosphorylation of b4,b4,suppressed
COc1cccc2c1C(=O)c1c(O)c3c(c(O)c1C2=O)C[C@@](O)(C(=O)CO)C[C@@H]3O[C@H]1C[C@H](N)[C@H](O)[C@H](C)O1 [Doxorubicin],tumor regression,"[2]; Neu(YD)/b4-WT and Neu(YD)/b4-1355T mice, single dose 10 mg/Kg",failed to induce tumor regression in either type of mouse
"COc1cc2ncnc(Nc3ccc(F)c(Cl)c3)c2cc1OCCCN1CCOCC1 [Iressa, Gefitinib]",activation of ERK and Akt in vitro,ERK and Akt [3],at doses lower than in Neu-b4-WT cells
same,"apparent IC50, comparison of cell types",activated ErbB2,equal apparent IC50
same,activation of ERK and Akt in tumor lysates,ERK and Akt [4],inhibited activation of ERK and Akt in Neu(YD)/b4-1355T tumors by an extent larger than it did in Neu(YD)/b4-WT tumors
same,effect on tumor volume,[2]; Neu(YD)/b4-1355T tumors,induced regression
same,effect on tumor volume,[2]; Neu(YD)/b4-WT tumors,only reduced the rate of growth
same,treated tumors that regress,[2]; control group (wild-type b4 mice),~20%
same,treated tumors that regress,[2]; tumors arising in b4-mutant mice,About 80%
same,activation of c-Jun and STAT3 in tumor lysates,c-Jun and STAT3,did not suppress but seemed to increase to a small extent
same,activation of ErbB2 in tumors,ErbB2 [5],suppressed activation of ErbB2 in both types of tumors
same,Matrigel invasion,Neu-b4-WT cells [6],prevented their invasion
same,phosphorylation of STAT3,STAT3,inhibited phosphorylation of STAT3 in Neu-b4-WT cells at concentrations higher than those necessary to suppress activation of ERK
same,reassembly of adherens and tight junctions,[7],promoted reassembly of both adherens and tight junctions
same,phosphorylation of ErbB2 at its major autophosphorylation site,ErbB2 [1],suppressed
same,tyrosine phosphorylation of ErbB2,ErbB2 [1],suppressed
same,phosphorylation of the P-loop of ErbB2,ErbB2 [1],inhibit phosphorylation of the P-loop of ErbB2 to a significant extent
same,tumor cell proliferation,[8]; Neu(YD)/b4-1355T mice,inhibited tumor cell proliferation
same,tumor cell proliferation,[8]; Neu(YD)/b4-WT mice,more modest inhibitory effect
same,activation of SFKs,SFKs,did not affect
same,organization of adherens and tight junctions,Neu-b4-WT cells [9],"failed to organize both types of junctions, unless they were treated with Iressa"
same,tyrosine phosphorylation of b4,b4,suppressed
same,"tumor apoptosis, comparison of genotypes",[10]; Neu(YD)/b4-1355T versus Neu(YD)/b4-WT mice,increased tumor apoptosis in Neu(YD)/b4-1355T mice to a larger extent than it did in Neu(YD)/b4-WT mice
same,overall apoptotic rates,"[10]; both genotypes, treated",less than 1%
same,phosphorylation of c-Jun,c-Jun,"inhibited phosphorylation of c-Jun in Neu-b4-WT cells, but at concentrations higher than those required to suppress activation of ERK"

# Source: patent US20080317752A1, “Inhibition of Tumorigenesis by Inhibition of a6b4 Integrin” (Sloan-Kettering Institute for Cancer Research, priority 2005, published 2008)
